For one experiment, the system named is HLA-HHDII/DP4 mice. As to the kind of experiment: Ex vivo IFNγ ELISpot after peptide immunisation, HHDII/DP4 mice. The settings on record: for IFNγ ELISpot response: 3 immunisations with CpG/MPLA, day 21. Format: in vivo, mouse. As for the experimental part: (§1) C57BL/6 mice (Charles River, UK), HLA-DR4 mice (Model #4149, Taconic, USA), HLA-A2/DR1 (HHDII/DR1, Pasteur Institute), HLA-A2.1+/+HLA-DP4+/+hCD4+/+ (HLA-HHDII/DP4) transgenic mice (EM: 02221, European Mouse Mutant Archive) described in patent WO2013/017545 A1 (EMMA repository, France) were used, aged between 8 and 12 weeks. Peptides were dissolved in PBS to 1 mg/ml and then emulsified (a series of dilutions) with CpG ODN 1826 and MPLA 6 μg/mouse of each (Invivogen, UK). Peptides (25 μg/mouse) were injected subcutaneously at the base of the tail. Mice were immunised at days 1, 7 and 14 for peptide immunisation. Spleens were removed for analysis at day 21 unless stated otherwise.
(§2) ELISpot assays were performed using murine IFNγ, IL-17 and IL-10 capture and detection reagents according to the manufacturer's instructions (Mabtech, Sweden). In brief, anti-IFNγ, IL-17 and IL-10 specific antibodies were coated onto wells of 96-well Immobilin-P plate. Synthetic peptides (at various concentrations) and 5×10^5 per well splenocytes were added to wells of the plate in quadruplicate Tumour target cells were added where relevant at 5×10^4/well in triplicate and plates incubated for 40 hrs at 37° C. After incubation, captured IFNγ, IL-10 and IL-17 were detected by biotinylated anti-IFNγ, IL-10 and IL-17 antibodies and developed with a streptavidin alkaline phosphatase and chromogenic substrate. Lipopolysaccharide (LPS; 5 μg/ml) was used as a positive control. For MHC blocking studies, anti-CD4 blocking antibody (GK1.5) or anti-CD4 blocking antibody (RPA-T4) for HHDII/DP4 mice which express human CD4 and anti-CD8 blocking antibody (2.43) from Bioxcell were used at 20 μg/ml. Spots were analysed and counted using an automated plate reader (Cellular Technologies Ltd).
Screening was performed to identify potential homocitrullinated ALDOA epitopes in transgenic HHDII/DP4 and HHDII/DR1 mice. Mice were immunised with pools of human homocitrullinated peptides. […] Each pool was administered as three immunisations containing 20 μg of each peptide and CpG/MPLA as an adjuvant. After 21 days the mice were culled and the immune responses to each peptide within the immunising pool were assessed by ex vivo ELISpot in HHDII/DP4 (FIG. 4b) and HHDII/DR1 mice (FIG. 4d). […] Our predictions therefore identified 3/5 peptides which could induce a T cell response. […] Of the responding peptides ALDOA 74-93 Hcit and 140-157 Hcit peptides are homologous in human and mice therefore these two peptides were selected for further investigation. Minimal IL-10 (FIG. 6b) or IL-17 (FIG. 6c) responses were seen to Aldolase peptides in HHDII/DP4 mice.
Using this combination of predictions, 5 CyK8 peptides containing homocitrulline were synthesised (Table 4). Screening was performed to identify potential homocitrullinated Cyk8 epitopes in transgenic HHDII/DP4. Mice were immunised with pools of human homocitrullinated peptides. […] Each pool was administered as three immunisations containing 20 μg of each peptide and CpG/MPLA as an adjuvant. After 21 days the mice were culled and the immune responses to each peptide within the immunising pool were assessed by ex vivo ELISpot in HHDII/DP4 (FIG. 10a). […] The responses to CyK8 101-120 Hcit, 112-131 Hcit, 182-201 Hcit, 371-388 Hcit and 381-399 Hcit immunisation were characterised for cross reactivity to the wt peptide sequence. […] Thus a key characteristic of immunogenic peptides is they express homocitrulline. All of these peptides (100%) were immunogenic. Thus a high predicted HLA-DP4 binding affinity (<30), the presence of homocitrulline residues in the core region, the peptide being amphipathic in nature with a predominantely spiral conformational structure upon 3D modelling, and the existence of homology between the mouse and human sequences defines immunogenicity. When this model was applied retrospectively to include the vimentin and ALDOA peptides 8/9 (88%) were correctly predicted. […]

Another experiment concerns HLA transgenic mice. As to the kind of experiment: T cell response to Hcit peptides in HLA transgenic mice (screening, ex vivo ELISpot). Also noted: species or system mouse. The settings on record: yes/no; Hcit peptide with CpG/MPLA. As for the experimental part:
as §1, §2
(§3) Screening was performed to identify potential homocitrullinated vimentin epitopes in mice. Mice were immunised with pools of homocitrullinated peptides. […] Each pool was administered as three immunisations containing 20 μg of each peptide and CpG/MPLA as an adjuvant on day 1, 8 and 15. On day 21 the mice were culled and the immune responses to each peptide within the immunising pool were assessed by ex vivo ELISpot. Given that different mouse strains have different MHC repertoires a number of strains were used for screening. Peptide responses were assessed in transgenic strains expressing human DR4 or HHDII/DR1 in a C57BL/6 background (see methods).
Screening was performed to identify potential homocitrullinated ALDOA epitopes in transgenic HHDII/DP4 and HHDII/DR1 mice. Mice were immunised with pools of human homocitrullinated peptides. […] Each pool was administered as three immunisations containing 20 μg of each peptide and CpG/MPLA as an adjuvant. After 21 days the mice were culled and the immune responses to each peptide within the immunising pool were assessed by ex vivo ELISpot in HHDII/DP4 (FIG. 4b) and HHDII/DR1 mice (FIG. 4d).
Using this combination of predictions, 5 CyK8 peptides containing homocitrulline were synthesised (Table 4). Screening was performed to identify potential homocitrullinated Cyk8 epitopes in transgenic HHDII/DP4. Mice were immunised with pools of human homocitrullinated peptides. […] Each pool was administered as three immunisations containing 20 μg of each peptide and CpG/MPLA as an adjuvant. After 21 days the mice were culled and the immune responses to each peptide within the immunising pool were assessed by ex vivo ELISpot in HHDII/DP4 (FIG. 10a).

For a further experiment, the system named is B16F1 HHDII/DR1 tumours. As to the kind of experiment: Tumour therapy, B16F1 HHDII/DR1 tumour in HHDII/DR1 mice. Format: in vivo, mouse. The settings on record: peptide with CpG/MPLA days 4, 11, 18. The source says: To determine if the epitopes that stimulate T cell responses are presented on MHC-II within the tumour environment, our homocitrullinated peptides were checked for tumour therapy in B16 tumour models. Mice were implanted with tumour cells on day 1 and then immunised with peptides and CpG/MPLA on days 4, 11 and 18.
HHDII/DR1 (FIG. 19a) or DR4 (FIG. 19b) transgenic mice were challenged with B16F1 HHDII/DR1 or B16F1 DR4 tumours respectively prior to immunisation with vimentin 116-135Hcit peptide and tumour growth and survival were monitored.
HHDII/DR1 mice were implanted with B16HHDII/DR1 tumour cells on day 1 and then immunised with Cyk8 371Hcit, 112hcit or both peptides and CpG/MPLA on days 4, 11 and 18.

A further experiment deals with HLA-DR4 mice. As to the kind of experiment: Ex vivo IFNγ ELISpot after peptide immunisation, HLA-DR4 mice. Format: in vivo, mouse. The settings on record: for IFNγ ELISpot response: 3 immunisations with CpG/MPLA, day 21. Here is the method: as §1, §2, §3

Where no end group is shown, it is not given here. [ ]: non-standard residue; d: D form. hCit = NC(=O)NCCCC[C@H](N)C(=O)O

In the case of “LREYQELMNV-hcit-LALDIEI (LREYQELMNV[hCit]LALDIEI) [Cyk8 371-388 Hcit]”, in the experiment with HLA-HHDII/DP4 mice, the “IFNγ response in presence of CD4 blocking antibody” value was “inhibited” and the “cross reactivity of Hcit response to wt peptide” value (shortened to “cross reactivity”) is listed as “significantly higher”. Also, the T cell response entry in the experiment on HLA transgenic mice is “Yes”. Besides, in the experiment with B16F1 HHDII/DR1 tumours, the “anti-tumour response / survival vs control” value is given as “Significant prevention of tumour growth”.
Turning to “hcit-LALDIEIATYR-hcit-LLEGEE ([hCit]LALDIEIATYR[hCit]LLEGEE) [Cyk8 381-399 Hcit]”, in the experiment on HLA-HHDII/DP4 mice, the “cross reactivity” value is reported as “significantly higher” and the “IFNγ ELISpot response” value is “stimulation of IFNγ responses”. Also, the T cell response entry with HLA transgenic mice is “Yes”.
As to “KFASFID-Hcit-VRFLEQQN-Hcit-MLE (KFASFID[hCit]VRFLEQQN[hCit]MLE) [Cyk8 101-120 Hcit]”, in the experiment with HLA-HHDII/DP4 mice, the “IFNγ response in presence of CD4 blocking antibody” value is “inhibited” and the “IFNγ ELISpot response” value is on record as “stimulation of IFNγ responses”. In addition, in the experiment with HLA transgenic mice, the T cell response entry is “Yes”.
Consider “LEQQN-hcit-MLET-hcit-WSLLQQQ-hcit-T (LEQQN[hCit]MLET[hCit]WSLLQQQ[hCit]T) [Cyk8 112-131 Hcit]”, for which, in the experiment with HLA-HHDII/DP4 mice, the “IFNγ response in presence of CD4 blocking antibody” value is reported as “not with CD4 blocking antibody”, the “IFNγ response in presence of CD8 blocking antibody” value is listed as “inhibited”, the “cross reactivity” value is on record as “significantly higher” and the “IFNγ ELISpot response” value is “stimulation of IFNγ responses”. The T cell response result with HLA transgenic mice is listed as “Yes”. In the experiment with B16F1 HHDII/DR1 tumours, the “anti-tumour response / survival vs control” value is listed as “Significant prevention of tumour growth”.
With “hcit-DGADFA-hcit-WRCVL-hcit-IGEH ([hCit]DGADFA[hCit]WRCVL[hCit]IGEH) [Aldolase A 140-157 Hcit]”, in the experiment with HLA-HHDII/DP4 mice, the “IFNγ response in presence of CD4 blocking antibody” value was “significantly reduced”, the “cross reactivity” value was “limited responses” and the “IFNγ ELISpot response” value was “stimulation of IFNγ responses”. For the same substance, the T cell response entry in the experiment with HLA transgenic mice is reported as “yes”. In addition, in the experiment with HLA-DR4 mice, the “IFNγ ELISpot response” value is “No responses were seen”. For the same substance, the “anti-tumour response / survival vs control” value with B16F1 HHDII/DR1 tumours is “significant increase in survival”.
For the substance “HACTQ-hcit-FSH(N)EEIAMATVTA (HACTQ[hCit]FSHNEEIAMATVTA; not fully specified; printed as HACTQ-hcit-FSH(N)EEIAMATVTA) [Aldolase A 238-256 Hcit]”, in the experiment on HLA-HHDII/DP4 mice, the “IFNγ ELISpot response” value is recorded as “stimulation of IFNγ responses”. Moreover, in the experiment on HLA transgenic mice, the T cell response result is on record as “yes”.
For “EIN-hcit-RTEMENEFVLI-hcit-hcit-DVDE (EIN[hCit]RTEMENEFVLI[hCit][hCit]DVDE) [Cyk8 182-202 Hcit]” the same measures were “stimulation of IFNγ responses” and “Yes”.
Consider “NYID-Hcit-VRFLEQQN-Hcit-ILLAEL (NYID[hCit]VRFLEQQN[hCit]ILLAEL) [Vimentin 116-135 Hcit]”, for which the “IFNγ ELISpot response” value in the experiment with HLA-HHDII/DP4 mice is given as “no IFNγ responses were observed”. Further, in the experiment on HLA transgenic mice, the T cell response result is on record as “yes”. Also, in the experiment with HLA-DR4 mice, the “IFNγ response in presence of CD4 blocking antibody” value was “significantly decreased”, the “IFNγ response in presence of CD8 blocking antibody” value is “not in the presence of the CD8 blocking antibody”, the “cross reactivity” value is listed as “no cross reactivity” and the “IFNγ ELISpot response” value was “significant response”. In the experiment with B16F1 HHDII/DR1 tumours, this substance yielded a survival of 50%.
With “IGGVILFHETLYQ-hcit-ADDGRP (IGGVILFHETLYQ[hCit]ADDGRP) [Aldolase A 74-93 Hcit]”, in the experiment on HLA-HHDII/DP4 mice, the “IFNγ response in presence of CD4 blocking antibody” value was “significantly reduced”, the “cross reactivity” value is recorded as “limited responses” and the “IFNγ ELISpot response” value is given as “stimulation of IFNγ responses”. For the same substance, the T cell response result in the experiment on HLA transgenic mice was “yes”. Moreover, in the experiment with HLA-DR4 mice, the “IFNγ ELISpot response” value is listed as “No responses were seen”.

For the origin of these results see patent US12458688B2, “Epitopes” (Scancell Limited, priority 2018, dated 2025).
